The source of these data is patent US8853224B2 (priority 2006, dated 2014).

The target of the test is Plasmodium falciparum purine nucleoside phosphorylase (PfPNP) (Plasmodium falciparum (isolate 3D7), UniProt Q8I3X4). As to the kind of experiment: biochemical.
Text: For inhibitors without slow-onset properties, fits to the same equation were made, but using initial reaction rates.
With `O=c1[nH]cnc2c(CNC[C@@H](O)[C@H](O)CO)c[nH]c12` (racemic) [Example 20.5, 7-(((2RS,3RS)-2,3,4-trihydroxybutylamino)methyl)-3H-pyrrolo[3,2-d]pyrimidin-4(5H)-one], the Kd came out at 32 ± 2 µM. In the case of `O=c1[nH]cnc2c(CNCC(CO)CO)c[nH]c12` [Example 8, 7-((3-hydroxy-2-(hydroxymethyl)propylamino)methyl)-3H-pyrrolo[3,2-d]pyrimidin-4(5H)-one], binding was characterised by a dissociation constant (Kd) of 0.21 ± 0.05 µM. `O=c1[nH]cnc2c(CNC[C@H](O)[C@H](O)CO)c[nH]c12` [Example 19.3, 7-(((2S,3R)-2,3,4-trihydroxybutylamino)methyl)-3H-pyrrolo[3,2-d]pyrimidin-4(5H)-one] displayed a Kd of 12 ± 2 µM.

As usually defined, the Kd is a measure of binding affinity in units of concentration. A higher Kd goes with a looser complex.
